# Source: patent publication US20170100489A1, “POLYETHYLENE GLYCOL-MODIFIED INTEGRIN BLOCKER HM-3 AND USE THEREOF” (HANMEI XU, priority 2012, published 2017)
# Like-named read-outs stand apart in the source and are kept apart here. Marks after values point to notes of the source that are not given here. Where no end group is shown, it is not given here. mPEG‑SC20k = methoxy polyethylene glycol-succinimidyl-carbonate, 20000 Da
# Columns and labels:
# [1] = tested on: human esophageal cancer Ec109 xenograft tumors; type: in vivo, nude mice; details: for Rate of inhibiting tumors / Tumor weight: Once 3 days
# Experimental: Tumor diameter was measured with a vernier caliper. […] Tumor volume formula: […]
# a, b respectively represent the length and width. […] The formula is as follows: […]
# TRTV: Treatment Group RTV; CRTV: Negative Control Group RTV
# [2] = Pharmacokinetics of mPEG-SC20k-HM-3 and HM-3 in rats (plasma concentration by ELISA); details: SD rats, intravenous
# Experimental: SD rats were randomly divided into six groups with the same number for male and female. Take three groups were administered intravenously integrin antagonist polypeptide with a high dose of 52 mg/kg (equivalent to HM-3 4.2 mg/kg), an intermediate dose of 26 mg/kg (equivalent to HM-3 2.1 mg/kg), a low-dose of 13 mg/kg (equivalent to HM-3 1.05 mg/kg). The other 3 groups were injected HM-3 with a high dose of 4.2 mg/kg, an intermediate dose of 2.1 mg/kg, a low doses of 1.05 mg/kg. Collected whole blood 0.5 ml once from the orbital venous plexus after 0.5 h, 1 h, 2 h, 3 h, 6 h, 12 h, 24 h, 48 h, 72 h, 96 h, 108 h, 132 h of drug administration, and applied heparin to get the effect of anti-coagulation. 12000 rpm/2 min centrifuged plasma. Draw supernatant 200 μl and 80° C. preheated PBS (0.05 M pH7.4) buffer 600 μl and mixed. Bath in the 80° C. water for 30 min. Centrifuged 2 min at 12000 rpm, and collected the supernatant, and stored in the condition of −20° C. Dissolved at room temperature, measured integrin antagonist peptide plasma concentration by ELISA.
# [3] = tested on: human bladder cancer HT1376 xenograft tumors; assay: Tumor growth inhibition, HT1376 xenograft; details: for Rate of inhibiting tumors / Tumor weight: Once 3 days
# Experimental: Human bladder cancer HT1376 cell lines in logarithmic growth phase were picked, and made into 5×10^7/ml cell suspension of under sterile conditions, and then 0.1 ml suspension was inoculated subcutaneously at the right armpit of nude mice. Tumor diameter was measured with a vernier caliper. The animals which had tumors with a size of 100-200 mm^3 were randomly divided into groups. The effect of polypeptide on anti-tumor was dynamically observed through the method of measuring tumor diameter. The times of measuring tumor diameter were once 2 days, and meantime, weighed mice. The mice in experimental group were infused polypeptide through tail vein. The mice in the placebo group were injected saline with the same volume, once 1 day; Taxol group: 10 mg/kg, once 1 week; Endostar group: 2.5 mg/kg, once 1 day; The groups of high, intermediate and low polypeptide: 6, 3, 1.5 mg/kg, respectively, once 1 day. After administration, all mice were sacrificed. Stripped the tumors and weighed.
# [4] = tested on: human gallbladder cancer GBC-SD xenograft tumors; assay: Tumor growth inhibition, GBC-SD xenograft; details: for Rate of inhibiting tumors / Tumor weight: Once 3 day
# Experimental: Human gallbladder cancer GBC-SD cell lines in logarithmic growth phase were picked and made into 5×10^7/ml cell suspension of under sterile conditions, and then 0.1 ml suspension was inoculated subcutaneously at the right armpit of nude mice. Tumor diameter was measured with a vernier caliper. The animals which had tumors with a size of 100-200 mm^3 were randomly divided into groups. The effect of polypeptide on anti-tumor was dynamically observed through the method of measuring tumor diameter. The times of measuring tumor diameter were once 2 days, and meantime, weighed mice. The mice in experimental group were infused polypeptide through tail vein. The mice in the placebo group were injected saline with the same volume, once 1 day; Taxol group: 10 mg/kg, once 1 week; Endostar group: 2.5 mg/kg, once 1 day; The groups of high, intermediate and low polypeptide: 6, 3, 1.5 mg/kg, respectively, once 1 day. After administration, all mice were sacrificed. Stripped the tumors and weighed.
# [5] = tested on: human breast cancer MDA-MB-231 xenograft tumors; assay: Tumor growth inhibition, MDA-MB-231 xenograft; details: for Rate of inhibiting tumors / Tumor weight: Once 3 days
# Experimental: Picked the tumor tissue of vigorous growth and was cut into pieces of about 1.5 mm^3. Under sterile conditions, the tumor tissue was inoculated subcutaneously on the right of nude mice. Tumor diameter was measured with a vernier caliper. The animals which had tumors with a size of 100-200 mm^3 were randomly divided into groups. The effect of polypeptide on anti-tumor was dynamically observed through the method of measuring tumor diameter. The times of measuring tumor diameter were once 2 days, and meantime, weighed mice. The mice in experimental group were infused polypeptide through tail vein, once 3 days. The mice in the placebo group were injected saline with the same volume. Tumor volume formula: TV=0.52×a×b^2
# (§1) a, b respectively represent the length and width. According to the result of measurement, calculate the relative tumor volume. Evaluation of antitumor activity is relative tumor proliferation rate T/C(%). The formula is as follows: T/C(%)^=TRTV/CRTV×100%
# (§2) TRTV: Treatment group RTV; CRTV: negative control group RTV
# [6] = tested on: human thyroid cancer SW-579 xenograft tumors; assay: Tumor growth inhibition, SW-579 xenograft; details: for Rate of inhibiting tumors / Tumor weight: Once 3 day
# Experimental: (§3) Picked the tumor tissue of vigorous growth and was cut into pieces of about 1.5 mm^3. Under sterile conditions, the tumor tissue was inoculated subcutaneously on the right of nude mice. Tumor diameter was measured with a vernier caliper. The animals which had tumors with a size of 100-200 mm^3 were randomly divided into groups. The effect of polypeptide on anti-tumor was dynamically observed through the method of measuring tumor diameter. The times of measuring tumor diameter were once 2 days, and meantime, weighed mice. The mice in experimental group were infused polypeptide through tail vein, once 3 days. The mice in the placebo group were injected saline with the same volume. Tumor volume formula:
# as §1
# [7] = tested on: human gastric cancer MGC803 xenograft tumors; assay: Tumor growth inhibition, MGC803 xenograft; details: for Rate of inhibiting tumors / Tumor weight: Once 3 days
# Experimental: as §3, §1, §2
# [8] = tested on: human kidney cancer A498 xenograft tumors; assay: Tumor growth inhibition, A498 xenograft; details: for Rate of inhibiting tumors / Tumor weight: Once 3 days
# Experimental: Human kidney cancer A498 cell lines in logarithmic growth phase were picked and made into 5×10^7/ml cell suspension of under sterile conditions, and then 0.1 ml suspension was inoculated subcutaneously at the right armpit of nude mice. Tumor diameter was measured with a vernier caliper. The animals which had tumors with a size of 100-200 mm^3 were randomly divided into groups. The effect of polypeptide on anti-tumor was dynamically observed through the method of measuring tumor diameter. The times of measuring tumor diameter were once 2 days, and meantime, weighed mice. The mice in experimental group were infused polypeptide through tail vein. The mice in the placebo group were injected saline with the same volume, once 1 day; Taxol group: 10 mg/kg, once 1 week; Endostar group: 2.5 mg/kg, once 1 day; The groups of high, intermediate and low polypeptide: 6, 3, 1.5 mg/kg, respectively, once 1 day. After administration, all mice were sacrificed. Stripped the tumors and weighed.
# [9] = high, 36.7 mg/kg, listed as polypeptide
# [10] = intermediate, 18.75 mg/kg, listed as polypeptide
# [11] = low, 9.38 mg/kg, listed as polypeptide
substance,measurement,setting,value
mPEG-SC20k-Ile-Val-Arg-Arg-Ala-Asp-Arg-Ala-Ala-Val-Pro-Gly-Gly-Gly-Gly-Arg-Gly-Asp ({mPEG‑SC20k}-IVRRADRAAVPGGGGRGD) [mPEG-SC20k-HM-3],inhibition of tumor growth compared with negative control,"[1]; 36.7 mg/kg, P<0.05",significant inhibition role
same,Rate of inhibiting tumors,"[1]; high, 36.7 mg/kg",62.24%*
same,Tumor weight,"[1]; high, 36.7 mg/kg",0.183 g
same,Rate of inhibiting tumors,[1]; [9],62.24%
same,Rate of inhibiting tumors,"[1]; intermediate, 18.75 mg/kg",55.66%
same,Tumor weight,"[1]; intermediate, 18.75 mg/kg",0.318 g
same,Rate of inhibiting tumors,[1]; [10],55.66%
same,Rate of inhibiting tumors,"[1]; low, 9.38 mg/kg",50.16%
same,Tumor weight,"[1]; low, 9.38 mg/kg",0.406 g
same,Rate of inhibiting tumors,[1]; [11],50.16%
same,CL,[2],0.118 mL/min/kg
same,inhibition of tumor growth compared with negative control,"[3]; 36.7 mg/kg, P<0.05",significant inhibition role
same,Rate of inhibiting tumors,"[3]; high, 36.7 mg/kg",63.42%*
same,Tumor weight,"[3]; high, 36.7 mg/kg",0.372 g
same,Rate of inhibiting tumors,[3]; [9],63.42%
same,Rate of inhibiting tumors,"[3]; intermediate, 18.75 mg/kg",54.24%
same,Tumor weight,"[3]; intermediate, 18.75 mg/kg",0.466 g
same,Rate of inhibiting tumors,[3]; [10],54.24%
same,Rate of inhibiting tumors,"[3]; low, 9.38 mg/kg",46.39%
same,Tumor weight,"[3]; low, 9.38 mg/kg",0.546 g
same,Rate of inhibiting tumors,[3]; [11],46.39%
same,inhibition of tumor growth compared with negative control,"[4]; 36.7 mg/kg, P<0.05",significant inhibition role
same,Rate of inhibiting tumors,"[4]; high, 36.7 mg/kg",61.45%*
same,Tumor weight,"[4]; high, 36.7 mg/kg",0.409 g
same,Rate of inhibiting tumors,[4]; [9],61.45%
same,Rate of inhibiting tumors,"[4]; intermediate, 18.75 mg/kg",50.59%
same,Tumor weight,"[4]; intermediate, 18.75 mg/kg",0.524 g
same,Rate of inhibiting tumors,[4]; [10],50.59%
same,Rate of inhibiting tumors,"[4]; low, 9.38 mg/kg",40.32%
same,Tumor weight,"[4]; low, 9.38 mg/kg",0.633 g
same,Rate of inhibiting tumors,[4]; [11],40.32%
same,inhibition of tumor growth compared with negative control,"[5]; 36.7 mg/kg, P<0.05",significant inhibition role
same,Rate of inhibiting tumors,"[5]; high, 36.7 mg/kg",63.05%*
same,Tumor weight,"[5]; high, 36.7 mg/kg",0.459 g
same,Rate of inhibiting tumors,[5]; [9],63.05%
same,Rate of inhibiting tumors,"[5]; intermediate, 18.75 mg/kg",59.11%
same,Tumor weight,"[5]; intermediate, 18.75 mg/kg",0.508 g
same,Rate of inhibiting tumors,[5]; [10],59.11%
same,Rate of inhibiting tumors,"[5]; low, 9.38 mg/kg",51.01%
same,Tumor weight,"[5]; low, 9.38 mg/kg",0.609 g
same,Rate of inhibiting tumors,[5]; [11],51.01%
same,inhibition of tumor growth compared with negative control,"[6]; 36.7 mg/kg, P<0.05",significant inhibition role
same,toxic and side effects,"[6]; 36.7 mg/kg, compared with positive 5-Fu group",no obvious toxic and side effects
same,Rate of inhibiting tumors,"[6]; high, 36.7 mg/kg",67.63%*
same,Tumor weight,"[6]; high, 36.7 mg/kg",0.406 g
same,Rate of inhibiting tumors,[6]; [9],67.63%
same,Rate of inhibiting tumors,"[6]; intermediate, 18.75 mg/kg",60.56%
same,Tumor weight,"[6]; intermediate, 18.75 mg/kg",0.494 g
same,Rate of inhibiting tumors,[6]; [10],60.56%
same,Rate of inhibiting tumors,"[6]; low, 9.38 mg/kg",58.42%
same,Tumor weight,"[6]; low, 9.38 mg/kg",0.521 g
same,Rate of inhibiting tumors,[6]; [11],58.42%
same,inhibition of tumor growth compared with negative control,"[7]; 36.7 mg/kg, P<0.05",significant inhibition role
same,Rate of inhibiting tumors,"[7]; high, 36.7 mg/kg",73.42%*
same,Tumor weight,"[7]; high, 36.7 mg/kg",0.192 g
same,Rate of inhibiting tumors,[7]; [9],73.42%
same,Rate of inhibiting tumors,"[7]; intermediate, 18.75 mg/kg",69.86%
same,Tumor weight,"[7]; intermediate, 18.75 mg/kg",0.218 g
same,Rate of inhibiting tumors,[7]; [10],69.86%
same,Rate of inhibiting tumors,"[7]; low, 9.38 mg/kg",59.57%
same,Tumor weight,"[7]; low, 9.38 mg/kg",0.292 g
same,Rate of inhibiting tumors,[7]; [11],59.57%
same,inhibition of tumor growth compared with negative control,"[8]; 36.7 mg/kg, P<0.05",significant inhibition role
same,Rate of inhibiting tumors,"[8]; high, 36.7 mg/kg",55.11%*
same,Tumor weight,"[8]; high, 36.7 mg/kg",0.424 g
same,Rate of inhibiting tumors,[8]; [9],55.11%
same,Rate of inhibiting tumors,"[8]; intermediate, 18.75 mg/kg",46.95%
same,Tumor weight,"[8]; intermediate, 18.75 mg/kg",0.501 g
same,Rate of inhibiting tumors,[8]; [10],46.95%
same,Rate of inhibiting tumors,"[8]; low, 9.38 mg/kg",39.00%
same,Tumor weight,"[8]; low, 9.38 mg/kg",0.576 g
same,Rate of inhibiting tumors,[8]; [11],39.00%
